Measured values as given in PubChem BioAssay (NCI).
Values joined by “and” are separate entries in the source; they are usually repeats but may differ in a detail not shown here. Equal values may be shown once.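 Assay format: 96-well plates, 48-hour exposure. GI50 = concentration required for 50% inhibition of growth. TGI marks complete inhibition of growth.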

Key:
Test in all cases: NCI tumour cell line growth inhibition, 48 h
HCT-116 colon = system: HCT-116 colon
BT-549 breast = system: BT-549 breast
SK-MEL-2 melanoma = system: SK-MEL-2 melanoma
OVCAR-3 ovarian = system: OVCAR-3 ovarian
MDA-MB-231 breast = system: MDA-MB-231 breast
CCRF-CEM leukemia = system: CCRF-CEM leukemia
NCI-H460 lung = system: NCI-H460 lung
IGROV1 ovarian = system: IGROV1 ovarian
PC-3 prostate = system: PC-3 prostate
A498 renal = system: A498 renal

Row | Compound | GI50 (HCT-116 colon) [µM] | TGI (HCT-116 colon) [µM] | GI50 (BT-549 breast) [µM] | TGI (BT-549 breast) [µM] | GI50 (SK-MEL-2 melanoma) [µM] | TGI (SK-MEL-2 melanoma) [µM] | GI50 (OVCAR-3 ovarian) [µM] | TGI (OVCAR-3 ovarian) [µM] | GI50 (MDA-MB-231 breast) [µM] | TGI (MDA-MB-231 breast) [µM] | GI50 (CCRF-CEM leukemia) [µM] | TGI (CCRF-CEM leukemia) | GI50 (NCI-H460 lung) [µM] | TGI (NCI-H460 lung) | GI50 (IGROV1 ovarian) [µM] | TGI (IGROV1 ovarian) | GI50 (PC-3 prostate) [µM] | TGI (PC-3 prostate) [µM] | GI50 (A498 renal) [µM] | TGI (A498 renal)
1 | C=C1C(=O)O[C@H]2[C@H]1CC/C(COC(=O)c1ccc(C(=O)O)s1)=C\CC[C@@]1(C)O[C@@H]21 | 0.715 | 2.03 | 1.72 | 4.85 | 2.29 | 5.22 | 1.43 | 2.98 | 1.6 | 3.06 | 1.63 | 8.66 µM | 3.33 | 10.8 µM | 2.16 | 5.82 µM | 2.9 | 11.4 | 7.5 | 20.3 µM
2 | Cc1ccc(-c2cc3nc(-c4ccccc4)nc(C(Cl)Cl)n3n2)cc1 | 0.689 | 1.61 | 15.2 | > 50 | 2.51 | 19.7 | 0.737 | 1.47 | 0.628 | 1.59 | > 50 | > 50 µM | 0.45 | 1.42 µM | 1.43 | > 50 µM | 0.781 | 2.05 | 0.672 | 1.39 µM
3 | CC1(C)C(=O)/C(=C\c2ccco2)C[C@]2(C)[C@H]3CC=C4[C@@H]5C[C@](C)(C(=O)O)CC[C@]5(C)CC[C@@]4(C)[C@]3(C)CC[C@@H]12 | 7.27 | 26.1 | 9.46 | 25.4 | 15.1 | 36.8 | 10.9 | 26.1 | 14.1 | 31.6 | 5.9 | 32.6 µM | 5.45 | 20.9 µM | 8.56 | 28.3 µM | 3.93 | 23.1 | 10.3 | 22.4 µM
4 | ClCCn1cnc2c(SCc3ccccc3)ncnc21 | 0.381 | 38.4 | 0.685 | > 100 | 2.24 | > 100 | 7.45 | > 100 | 30 | > 100 | 0.889 | > 100 µM | 0.356 | 30.1 µM | 0.497 | 10.7 µM | 0.356 | > 100 | 3.23 | 74.6 µM
5 | O=C(O)c1nnsc1COCc1ccccc1 | – | > 100 | – | > 100 | – | > 100 | – | > 100 | – | > 100 | – | > 100 µM | – | > 100 µM | – | > 100 µM | – | > 100 | – | > 100 µM
6 | O=S(=O)(O)c1ccc2cc(N=Nc3cc(S(=O)(=O)O)c4cccnc4c3O)ccc2c1 | – | > 100 | – | > 100 | – | > 100 | – | > 100 | – | > 100 | – | > 100 µM | – | > 100 µM | – | > 100 µM | – | > 100 | – | > 100 µM
7 | O=Nc1c2cccnc2n2nnc3ccc(Cl)cc3c12 | 0.316 | 6.11 | 3.57 | 12.3 | 3.6 | 13.3 | 0.447 | 1.45 | 1.41 | 7.76 | 0.0452 | 2.76 µM | 2.11 | 7.8 µM | 1.25 | 7.69 µM | 1.09 | 7.98 | 3.34 | 10.3 µM
8 | O=C1/C(=C\c2cccs2)Oc2ccccc21 | – | > 100 | – | > 100 | – | > 100 | – | > 100 | – | > 100 | – | > 100 µM | – | > 100 µM | – | > 100 µM | – | > 100 | – | > 100 µM
9 | COc1ccc(N=Cc2ccc(N(CCC#N)CCC#N)cc2)cc1 | – | > 100 | – | > 100 | – | > 84.2 | – | > 100 | – | > 100 | – | > 100 µM | – | > 100 µM | – | > 100 µM | – | > 100 | – | > 100 µM
10 | N#C/C(=C(\O)C(=O)O)c1ccc(-c2cccc3ccccc23)cc1 | – | > 100 | – | > 100 | – | > 100 | – | > 100 | – | > 100 | – | > 100 µM | – | > 100 µM | – | > 100 µM | – | > 100 | – | > 100 µM
11 | Cc1ccc2c(c1)sc(-c1ccc(N(C)C)cc1)[n+]2C | 0.502 | > 34.6 | 0.464 | 8.08 | 4.25 | > 38 | 0.685 | 15 | 2.75 | 21.1 | 1.98 | > 62.5 µM | 1.18 | 8.25 µM | 3.77 | > 100 µM | 0.677 | 9.23 | 0.785 | 8.16 µM
12 | O=C1NC(=O)C(c2ccccc2Cl)=C1Nc1cccc(O)c1 | 7.51 | > 25 | 9.62 | > 25 | 1.99 | > 25 | 4.95 | > 25 | > 25 | > 25 | 7.05 | > 25 µM | 7.12 | > 25 µM | > 25 | > 25 µM | 11.3 | > 25 | 6.49 | > 25 µM
13 | OCCCNCc1ccccn1 | – | > 100 | – | > 100 | – | > 100 | – | > 100 | – | > 100 | – | > 100 µM | – | > 100 µM | – | > 100 µM | – | > 100 | – | > 100 µM
14 | CCCCS(=N)(=O)CC[C@H](N)C(=O)O (stereo not given in full) | > 9060 | > 10000 | > 10000 | > 10000 | > 7640 | > 10000 | > 10000 | > 10000 | > 10000 | > 10000 | 302 | 2790 µM and 2140 µM | > 3940 | 5000 µM and > 10000 µM | 336 | 4980 µM and 6370 µM | > 10000 | > 10000 | > 10000 | 5000 µM and > 10000 µM
15 | NC(=O)c1ccccc1NC(=O)C(=O)C(c1cnc2ccc([N+](=O)[O-])cc2n1)[N+](=O)[O-] (stereo not given) | – | > 100 | – | > 100 | – | > 100 | – | > 100 | – | > 100 | – | > 100 µM | – | > 100 µM | – | > 100 µM | – | > 100 | – | > 100 µM
